Laboratory results reported in PubChem BioAssay AID330 (DTP/NCI, 2004).
Values joined by “and” are separate entries in the source; they are usually repeats but may differ in a detail not shown here. Equal entries are not always repeated. Toxic doses and inconclusive results are not listed. The calls were made as follows: active = survival T/C of 150% or more; inactive = T/C below 125% in these data.

Test system: P388 leukemia ip, CD2F1 mice, survival T/C
Assay: NCI In Vivo Anticancer Drug Screen. Data for tumor model P388 Leukemia (intraperitoneal) in CD2F1 (CDF1) mice
Details: endpoint: median survival time, higher = longer survival
Method in brief: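 Mice carrying the transplanted tumor received test compound or vehicle. Survival was recorded in each group, and the value is the treated-group measurement divided by that of the vehicle-treated control group.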

[1] = dose: 60.0 mg/kg/injection, schedule: Q01DX005 (ip), vehicle: saline with Tween-80
[2] = dose: 120.0 mg/kg/injection, schedule: Q01DX005 (ip), vehicle: saline with Tween-80
[3] = dose: 240.0 mg/kg/injection, schedule: Q01DX005 (ip), vehicle: saline with Tween-80
[4] = dose: 60.0 mg/kg/injection, schedule: Q01DX005 (ip), vehicle: Klucel (hydroxypropylcellulose) (HPC)
[5] = dose: 120.0 mg/kg/injection, schedule: Q01DX005 (ip), vehicle: Klucel (hydroxypropylcellulose) (HPC)
[6] = dose: 240.0 mg/kg/injection, schedule: Q01DX005 (ip), vehicle: Klucel (hydroxypropylcellulose) (HPC)
[7] = dose: 50.0 mg/kg/injection, schedule: Q01DX009 (ip), vehicle: saline
[8] = dose: 100.0 mg/kg/injection, schedule: Q01DX009 (ip), vehicle: saline
[9] = dose: 200.0 mg/kg/injection, schedule: Q01DX009 (ip), vehicle: saline
[10] = dose: 400.0 mg/kg/injection, schedule: Q01DX009 (ip), vehicle: saline
[11] = dose: 600.0 mg/kg/injection, schedule: Q01DX009 (ip), vehicle: saline
[12] = dose: 50.0 mg/kg/injection, schedule: Q01DX009 (ip), vehicle: saline with Tween-80
[13] = dose: 100.0 mg/kg/injection, schedule: Q01DX009 (ip), vehicle: saline with Tween-80
[14] = dose: 200.0 mg/kg/injection, schedule: Q01DX009 (ip), vehicle: saline with Tween-80
[15] = dose: 25.0 mg/kg/injection, schedule: Q01DX009 (ip), vehicle: Klucel (hydroxypropylcellulose) (HPC)
[16] = dose: 50.0 mg/kg/injection, schedule: Q01DX009 (ip), vehicle: Klucel (hydroxypropylcellulose) (HPC)
[17] = dose: 100.0 mg/kg/injection, schedule: Q01DX009 (ip), vehicle: Klucel (hydroxypropylcellulose) (HPC)
[18] = dose: 50.0 mg/kg/injection, schedule: Q01DX005 (ip), vehicle: Klucel (hydroxypropylcellulose) (HPC)
[19] = dose: 100.0 mg/kg/injection, schedule: Q01DX005 (ip), vehicle: Klucel (hydroxypropylcellulose) (HPC)
[20] = dose: 200.0 mg/kg/injection, schedule: Q01DX005 (ip), vehicle: Klucel (hydroxypropylcellulose) (HPC)

Measured: T/C

NC(CCCCC(N)C(=O)c1ccccc1)C(=O)c1ccccc1 (centres undefined)
inactive: [1] 98 % of control | [2] 93 % of control | [3] 94 % of control

CCOc1cc2c(cc1Cc1cc(OC)c(OC)c(OC)c1)OCO2
inactive: [4] 91 % of control | [5] 98 % of control | [6] 86 % of control

COc1ccc[nH]c1=O
inactive: [7] 102 % of control and 103 % of control | [8] 106 % of control and 109 % of control | [9] 100 % of control and 105 % of control | [10] 105 % of control and 112 % of control | [11] 106 % of control and 114 % of control

CC1=C(C)CN(CCC(=O)O)C(C(N)=O)C1 (centres undefined)
inactive: dose: 50.0 mg/kg/injection, schedule: Q01DX005 (ip), vehicle: saline 100 % of control | dose: 100.0 mg/kg/injection, schedule: Q01DX005 (ip), vehicle: saline 107 % of control | dose: 200.0 mg/kg/injection, schedule: Q01DX005 (ip), vehicle: saline 100 % of control

CC1CCCC(C2CC3CCCCC3C(N)[N-]2)[N-]1.CC1CCCC(C2CC3CCCCC3C(N)[N-]2)[N-]1.O=[N+]([O-])O.[Cu+2] (centres undefined)
inactive: dose: 100.0 mg/kg/injection, schedule: Q04DX002 (ip), vehicle: suspension in saline 105 % of control | dose: 200.0 mg/kg/injection, schedule: Q04DX002 (ip), vehicle: suspension in saline 112 % of control

O=[N+]([O-])C1CCC(N=Nc2c(O)ccc3ccccc23)CC1 (centres undefined)
inactive: [1] 96 % of control | [2] 99 % of control | [3] 99 % of control

Cc1ccc(-c2cn3ccsc3n2)cc1
inactive: dose: 100.0 mg/kg/injection, schedule: Q01DX001 (ip), vehicle: Klucel (hydroxypropylcellulose) (HPC) 95 % of control | dose: 200.0 mg/kg/injection, schedule: Q01DX001 (ip), vehicle: Klucel (hydroxypropylcellulose) (HPC) 97 % of control

O=c1c2ccccc2c2ccccc2c(=O)n1-c1cc2c3ccccc3ccc2c2ccccc12
inactive: [4] 100 % of control | [5] 99 % of control | [6] 95 % of control

C[C@H]1C(=O)CCC2[C@]3(C)CC4OC(=O)C5(CC[C@@]6(C)CCC(C)(C)CC6C45C)C3CC[C@@]21C (some centres undefined)
inactive: dose: 8.25 mg/kg/injection, schedule: Q01DX005 (ip), vehicle: Klucel (hydroxypropylcellulose) (HPC) 93 % of control

Nc1[nH]nc(Nc2cccc(Cl)c2Cl)c1C(=O)c1cccs1
inactive: dose: 12.5 mg/kg/injection, schedule: Q01DX009 (ip), vehicle: saline with Tween-80 101 % of control | dose: 25.0 mg/kg/injection, schedule: Q01DX009 (ip), vehicle: saline with Tween-80 99 % of control | [12] 99 % of control and 100 % of control | [13] 96 % of control | [14] 98 % of control

COC1C(C)(C)C1(Br)Br (centres undefined)
inactive: dose: 50.0 mg/kg/injection, schedule: Q01DX005 (ip), vehicle: saline with Tween-80 100 % of control | dose: 100.0 mg/kg/injection, schedule: Q01DX005 (ip), vehicle: saline with Tween-80 99 % of control | dose: 200.0 mg/kg/injection, schedule: Q01DX005 (ip), vehicle: saline with Tween-80 98 % of control

C#C/C=C/CC1OC(C(Br)CC)CC(OC(C)=O)C(Cl)CC1Cl (centres undefined)
inactive: dose: 3.75 mg/kg/injection, schedule: Q01DX005 (ip), vehicle: Klucel (hydroxypropylcellulose) (HPC) 97 % of control | dose: 7.5 mg/kg/injection, schedule: Q01DX005 (ip), vehicle: Klucel (hydroxypropylcellulose) (HPC) 120 % of control | dose: 15.0 mg/kg/injection, schedule: Q01DX005 (ip), vehicle: Klucel (hydroxypropylcellulose) (HPC) 100 % of control | dose: 30.0 mg/kg/injection, schedule: Q01DX005 (ip), vehicle: Klucel (hydroxypropylcellulose) (HPC) 98 % of control

COc1cc(C2OC(=O)c3ccccc3S2)ccc1O (centres undefined)
inactive: dose: 6.25 mg/kg/injection, schedule: Q01DX009 (ip), vehicle: Klucel (hydroxypropylcellulose) (HPC) 114 % of control | dose: 12.5 mg/kg/injection, schedule: Q01DX009 (ip), vehicle: Klucel (hydroxypropylcellulose) (HPC) 110 % of control and 119 % of control | [15] 114 % of control and 120 % of control | [16] 106 % of control | [17] 118 % of control

NC(=O)SCCC(=O)Nc1ccccc1
inactive: [18] 105 % of control | [19] 105 % of control | [20] 109 % of control

c1ccc2c(c1)Nc1ccc(CN3CCOCC3)cc1S2
inactive: [4] 104 % of control | [5] 97 % of control | [6] 92 % of control

O=C1NNC(=O)c2ccccc2C(=O)S1
inactive: [1] 102 % of control | [2] 101 % of control | [3] 97 % of control

COC1CCC(/C=C(\C#N)C2CCC(OC)CC2)CC1 (centres undefined)
inactive: [15] 107 % of control | [16] 100 % of control | [17] 96 % of control | dose: 200.0 mg/kg/injection, schedule: Q01DX009 (ip), vehicle: Klucel (hydroxypropylcellulose) (HPC) 92 % of control

O=S(=O)(O)c1cc(O)c(O)c(S(=O)(=O)O)c1
inactive: [8] 101 % of control and 95 % of control | [9] 100 % of control and 94 % of control | [10] 100 % of control and 103 % of control | [11] 104 % of control and 90 % of control

Cn1c2c(c(=O)c3ccccc31)CCC(C)(C)O2
inactive: [18] 100 % of control | [19] 91 % of control | [20] 98 % of control

C=C(c1ccc(OC)c(OC)c1)c1nccc2cc(OC)c(OC)cc12
inactive: [18] 98 % of control | [19] 96 % of control | [20] 100 % of control

O=C(CCl)N/N=C/c1ccccc1
inactive: [12] 106 % of control | [7] 97 % of control | [13] 107 % of control | [8] 95 % of control | [14] 111 % of control | [9] 96 % of control

COc1cc(C2c3cc4c(cc3OC3(O)CCCC23)OCO4)cc(OC)c1OC (centres undefined)
inactive: [1] 91 % of control | [2] 93 % of control | [3] 99 % of control
